The source of these data is patent US20180214428A1, “3-(1H-INDOL-2-YL)-1H-PYRAZOLO[3,4-B]PYRIDINES AND THERAPEUTIC USES THEREOF” (Samumed, LLC, priority 2015, published 2018).

For orientation: inhibition means the relative decrease from the control value, in per cent.

Molecules are shown by their SMILES.

The test system of one experiment is IL-6. Nature of the experiment: IL-6 inhibition in LPS-stimulated THP-1 monocytes (HTRF). The format is cell-based, human. The settings on record: THP-1 cells; for EC50: 500 ng/mL LPS, 22 h, HTRF IL-6 readout, 10-point dose-response from 10 μM; for inhibition at 10 µM: LPS stimulated, given only where EC50 >10 μM, top concentration 10 μM, read-out: percentage in parentheses beside EC50 >10 (IL-6 inhibition). Summed up:
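THP-1 cells serum-reduced (1% FBS, 24 h), then 5000 cells/well preincubated 2 h with compound (10-point 1:3 series from 10 μM, 0.1% DMSO) before 500 ng/mL LPS for 22 h at 37 °C. Secreted IL-6 quantified by HTRF 665/620 ratio; DMSO-normalised duplicates fitted to four-parameter EC50; above 10 μM, % inhibition at 10 μM given.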

Experiment [1] relates to primary human mesenchymal stem cells (hMSCs). Nature of the experiment: Induction of chondrogenesis in primary human mesenchymal stem cells. The format is cell-based. The settings on record: 6 days; for Emax / EC50: Homo sapiens, Mesenchymal stem cells, 144 h; for Emax: read-out: Max. Activity as % TGF-β3 activity; for EC50: concentration required to induce 50% levels of chondrogenesis vs TGF-β3, read-out: Conc (nM) of 50% TGF-β3 activity. How it is done:
Representative compounds were screened using primary human mesenchymal stem cells (hMSCs) to determine their ability to induce chondrogenesis (process by which cartilage is developed).
Primary human mesenchymal stem cells (hMSCs) were purchased from Lonza (Walkersville, Md.) and expanded in Mesenchymal Stem Cell Growth Media (Lonza). Cells between passage 3 and 6 were used for the experiments.
Each compound was dissolved in DMSO as a 10 mM stock and used to prepare compound source plates. Serial dilution (1:3, 6-point dose-response curves from 2700 nM to 10 nM) and compound transfer was performed using the ECHO 550 (Labcyte, Sunnyvale, Calif.) into 96-well clear bottom assay plates (Greiner Bio-One) with appropriate DMSO backfill for a final DMSO concentration of 0.03%. hMSCs were plated at 20,000 cells/well in 250 μL/well Incomplete Chondrogenic Induction Medium (Lonza; DMEM, dexamethasone, ascorbate, insulin-transferrin-selenium [ITS supplement], gentamycin-amphotericin [GA-1000], sodium pyruvate, proline and L-glutamine). TGF-β3 (10 ng/mL) was used as a positive control for differentiation while negative control wells were treated with 75 nL DMSO for normalization and calculating EC50 values. Cells were incubated at 37° C. and 5% CO2 for 6 days. To image chondrogenic nodules, the cells were fixed using 4% formaldehyde (Electron Microscopy Sciences), and stained with 2 μg/mL Rhodamine B (Sigma-Aldrich) and 20 μM Nile Red (Sigma-Aldrich) [Johnson K., et. al, A Stem Cell-Based Approach to Cartilage Repair, Science, (2012). 336(6082), 717-721]. The nodules imaged (4 images per well at 4× magnification) by excitation at 531 nm and emission at 625 nm and quantified using the CellInsight CX5 (Thermo Scientific). Number of nodules in each well was normalized to the average of 3 DMSO treated wells on the same plate using Excel (Microsoft Inc.). The normalized averages (fold change over DMSO) of 3 replicate wells for each compound concentration were calculated. Due to solubility limitations of some of the compounds, curve fitting was incomplete leading to inaccurate EC50 determinations.
Using TGF-β3 as a positive control, the concentration of representative compounds required to induce 50% levels of chondrogenesis is reported. In addition, the maximum activity of each compound and the respective dose that each compound reached maximum chondrogenesis activity is reported.

[2] abbreviates: chondrogenic nodules, TGF-β3 (10 ng/mL) positive control.

Turning to `c1ccc(-c2cccc3[nH]c(-c4n[nH]c5ncc(-c6cncnc6)cc45)cc23)nc1` [Compound 143, 3-(4-(Pyridin-2-yl)-1H-indol-2-yl)-5-(pyrimidin-5-yl)-1H-pyrazolo[3,4-b]pyridine], in the experiment on IL-6 (Homo sapiens), the EC50 is > 10000 nM and the inhibition at 10 µM was determined as 37.6%. In addition, the Emax in experiment [1] (setting [2]) was 25%.
On to `CN1CCN(c2cccc3[nH]c(-c4n[nH]c5ncc(-c6cncc(NC(=O)C7CCCC7)c6)cc45)cc23)CC1` [Compound 222, N-(5-(3-(4-(4-Methylpiperazin-1-yl)-1H-indol-2-yl)-1H-pyrazolo[3,4-b]pyridin-5-yl)pyridin-3-yl)cyclopentanecarboxamide], for which the EC50 is 98 nM with IL-6 (Homo sapiens) and 100 nM in experiment [1]. The Emax in experiment [1] (setting [2]) was 408%.
The corresponding values for `Fc1ccc(-c2cccc3[nH]c(-c4n[nH]c5ncc(-c6cncc(CN7CCCC7)c6)cc45)cc23)cc1` [Compound 35, 3-(4-(4-Fluorophenyl)-1H-indol-2-yl)-5-(5-(pyrrolidin-1-ylmethyl)pyridin-3-yl)-1H-pyrazolo[3,4-b]pyridine] are 212 nM, 10 nM and 160%.
For the compound `O=C(Nc1cncc(-c2cnc3[nH]nc(-c4cc5c(-c6cccnc6)cccc5[nH]4)c3c2)c1)C1CCC1` [Compound 89, N-(5-(3-(4-(Pyridin-3-yl)-1H-indol-2-yl)-1H-pyrazolo[3,4-b]pyridin-5-yl)pyridin-3-yl)cyclobutanecarboxamide], the EC50 in the experiment on IL-6 (Homo sapiens) stood at 104 nM. Moreover, the Emax in experiment [1] (setting [2]) stood at 41%.
As for `c1ccc2[nH]c(-c3n[nH]c4ncc(-c5cncc(CN6CCCC6)c5)cc34)cc2c1` [Compound 240, 3-(1H-Indol-2-yl)-5-(5-(pyrrolidin-1-ylmethyl)pyridin-3-yl)-1H-pyrazolo[3,4-b]pyridine], the EC50 amounted to 821 nM in the experiment on IL-6 (Homo sapiens) and 10 nM in experiment [1]. Further, the Emax in experiment [1] (setting [2]) was 98%.
For the compound `CN(C)c1cncc(-c2cnc3[nH]nc(-c4cc5c(N6CCCCC6)cccc5[nH]4)c3c2)c1` [Compound 151, N,N-Dimethyl-5-(3-(4-(piperidin-1-yl)-1H-indol-2-yl)-1H-pyrazolo[3,4-b]pyridin-5-yl)pyridin-3-amine], the EC50 with IL-6 (Homo sapiens) turned out to be 5250 nM. Moreover, the Emax in experiment [1] (setting [2]) is 22%.
`CN(C)CCNc1cc(F)cc(-c2cccc3[nH]c(-c4n[nH]c5ncc(-c6ccncc6)cc45)cc23)c1` [Compound 440] came in with an EC50 in the experiment with IL-6 of 15 nM. The “Max. Activity as % TGF-β3 activity” value in experiment [1] (setting [2]) amounted to 31%. Besides, in experiment [1] (chondrogenic nodules, dose at which maximum chondrogenesis activity was reached), the “Conc (nM) of Max. activity” value came out at 2700 nM.
In turn, `c1ccc(-c2cccc3[nH]c(-c4n[nH]c5ncc(-c6cncc(CN7CCCC7)c6)cc45)cc23)nc1` [Compound 131, 3-(4-(Pyridin-2-yl)-1H-indol-2-yl)-5-(5-(pyrrolidin-1-ylmethyl)pyridin-3-yl)-1H-pyrazolo[3,4-b]pyridine] displayed an EC50 in the experiment on IL-6 (Homo sapiens) of 1120 nM. The Emax in experiment [1] (setting [2]) turned out to be 161%.
For `c1cncc(-c2cnc3[nH]nc(-c4cc5c(-c6cccnc6)cccc5[nH]4)c3c2)c1` [Compound 74, 5-(Pyridin-3-yl)-3-(4-(pyridin-3-yl)-1H-indol-2-yl)-1H-pyrazolo[3,4-b]pyridine], in that order: 76 nM and 29%.
For `CCNCc1cncc(-c2cnc3[nH]nc(-c4cc5c(-c6cc(F)cc(NCCN(C)C)c6)cccc5[nH]4)c3c2)c1` [Compound 428, N^1-(3-(2-(5-(5-((Ethylamino)methyl)pyridin-3-yl)-1H-pyrazolo[3,4-b]pyridin-3-yl)-1H-indol-4-yl)-5-fluorophenyl)-N^2,N^2-dimethylethane-1,2-diamine], in that order: 257 nM and 74%.
For the compound `CN(C)CCNc1cc(F)cc(-c2cccc3[nH]c(-c4n[nH]c5ncc(-c6cncc(NC(=O)C7CCC7)c6)cc45)cc23)c1` [Compound 443, N-(5-(3-(4-(3-((2-(Dimethylamino)ethyl)amino)-5-fluorophenyl)-1H-indol-2-yl)-1H-pyrazolo[3,4-b]pyridin-5-yl)pyridin-3-yl)cyclobutanecarboxamide], in the experiment on IL-6 (Homo sapiens), the EC50 is > 10000 nM and the inhibition at 10 µM is 47.3%. For the same compound, the Emax in experiment [1] (setting [2]) was 78%. The EC50 in experiment [1] turned out to be 100 nM.
For `Fc1ccc(-c2cccc3[nH]c(-c4n[nH]c5ncc(-c6cncnc6)cc45)cc23)cc1` [Compound 47, 3-(4-(4-Fluorophenyl)-1H-indol-2-yl)-5-(pyrimidin-5-yl)-1H-pyrazolo[3,4-b]pyridine], in that order: > 10000 nM, 35.6%, 135% and 10 nM.
With `Nc1cncc(-c2cnc3[nH]nc(-c4cc5c(-c6ccccc6F)cccc5[nH]4)c3c2)c1` [Compound 49, 5-(3-(4-(2-Fluorophenyl)-1H-indol-2-yl)-1H-pyrazolo[3,4-b]pyridin-5-yl) pyridin-3-amine], the EC50 in the experiment with IL-6 (Homo sapiens) stood at 276 nM. In experiment [1] (setting [2]), the Emax was determined as 134%.
On to `CN(C)CCNc1cc(F)cc(-c2cccc3[nH]c(-c4n[nH]c5ncc(-c6cncc(N)c6)cc45)cc23)c1` [Compound 425, N^1-(3-(2-(5-(5-Aminopyridin-3-yl)-1H-pyrazolo[3,4-b]pyridin-3-yl)-1H-indol-4-yl)-5-fluorophenyl)-N^2,N^2-dimethylethane-1,2-diamine], for which the EC50 was found to be 92 nM in the experiment on IL-6 (Homo sapiens) and 900 nM in experiment [1]. In addition, the Emax in experiment [1] (setting [2]) was found to be 101%.
`CCNCc1cncc(-c2cnc3[nH]nc(-c4cc5c(-c6ccccn6)cccc5[nH]4)c3c2)c1` [Compound 124, N-((5-(3-(4-(Pyridin-2-yl)-1H-indol-2-yl)-1H-pyrazolo[3,4-b]pyridin-5-yl)pyridin-3-yl)methyl)ethanamine] gave an EC50 with IL-6 (Homo sapiens) of 194 nM. For the same compound, the Emax in experiment [1] (setting [2]) came to 32%.
For `CC(C)Nc1cncc(-c2cnc3[nH]nc(-c4cc5c(-c6cc(F)cc(NCCN(C)C)c6)cccc5[nH]4)c3c2)c1` [Compound 434, N^1-(3-Fluoro-5-(2-(5-(5-(isopropylamino)pyridin-3-yl)-1H-pyrazolo[3,4-b]pyridin-3-yl)-1H-indol-4-yl)phenyl)-N^2,N^2-dimethylethane-1,2-diamine], the EC50 in the experiment with IL-6 (Homo sapiens) worked out at 692 nM. For the same compound, the Emax in experiment [1] (setting [2]) is 56%.
Regarding `Nc1cncc(-c2cnc3[nH]nc(-c4cc5c(-c6ccccn6)cccc5[nH]4)c3c2)c1` [Compound 121, 5-(3-(4-(Pyridin-2-yl)-1H-indol-2-yl)-1H-pyrazolo[3,4-b]pyridin-5-yl) pyridin-3-amine], the figures for the EC50 (with IL-6 (Homo sapiens); in experiment [1]) were 266 nM and 900 nM, respectively. Also, the Emax in experiment [1] (setting [2]) came to 117%.
`CC(C)CC(=O)Nc1cncc(-c2cnc3[nH]nc(-c4cc5c(-c6cc(F)cc(NCCN(C)C)c6)cccc5[nH]4)c3c2)c1` [Compound 424, N-(5-(3-(4-(3-((2-(Dimethylamino)ethyl)amino)-5-fluorophenyl)-1H-indol-2-yl)-1H-pyrazolo[3,4-b]pyridin-5-yl)pyridin-3-yl)-3-methylbutanamide]: the EC50 in the experiment with IL-6 (Homo sapiens) was determined as 660 nM. The Emax in experiment [1] (setting [2]) came out at 63%.
For the compound `CN1CCN(c2cccc3[nH]c(-c4n[nH]c5ncc(-c6cncc(CN7CCCCC7)c6)cc45)cc23)CC1` [Compound 215, 3-(4-(4-Methylpiperazin-1-yl)-1H-indol-2-yl)-5-(5-(piperidin-1-ylmethyl)pyridin-3-yl)-1H-pyrazolo[3,4-b]pyridine], the EC50 with IL-6 (Homo sapiens) was determined as 220 nM; in experiment [1] it was 300 nM. Also, the Emax in experiment [1] (setting [2]) is 51%.
In the case of `CN(C)CCNc1cc(F)cc(-c2cccc3[nH]c(-c4n[nH]c5ncc(-c6cncnc6)cc45)cc23)c1` [Compound 449, N^1-(3-Fluoro-5-(2-(5-(pyrimidin-5-yl)-1H-pyrazolo[3,4-b]pyridin-3-yl)-1H-indol-4-yl)phenyl)-N^2,N^2-dimethylethane-1,2-diamine], in the experiment with IL-6 (Homo sapiens), the EC50 was 7 nM. Further, the Emax in experiment [1] (setting [2]) came out at 17%.
